# pIC50: −log10 of the molar value.
# Assays:
# in vitro = conditions: African green monkey
# [1] = test system: vaccinia virus expressing the green fluorescent protein (vvGFP); experiment: microbe, parasite or virus in culture; type: cell-based; conditions: for pIC50: Orthopoxvirus vaccinia, BSC-40, 24 h
# [2] = in vivo, po; cited from earlier work
SMILES,CC50 (in vitro),anti-viral effect in a cell culture assay (inhibition of viral replication) [1],pIC50 [1],bio-availability when administered orally [2]
"COc1c(CCNC(=O)c2cc3ccccc3cc2O)cccc1-c1ccc([N+](=O)[O-])cc1 [TTP-A, 3-hydroxy-naphthalene-2-carboxylic acid [2-(2-methoxy-4′-nitro-biphenyl-3-yl)-ethyl]-amide]",~900 µM,have an anti-viral effect,~4.92,
"COC(=O)C(Cc1ccc(-c2ccc(F)c(Cl)c2)cc1)NC(=O)c1cc(-c2ccc(C(F)(F)F)cc2)ccc1O (stereo not shown) [TTP-B, 3-(3′-chloro-4′-fluoro-biphenyl-4-yl)-2-[(4-hydroxy-4′-trifluoromethyl-biphenyl-3-carbonyl)-amino]-propionic acid methyl ester]",~600 µM,have an anti-viral effect,~5.34,
Nc1ccn(C[C@@H](CO)OCP(=O)(O)O)c(=O)n1 [cidofovir],,,,low bio-availability

# From patent publication US20070112523A1 (priority 2003, published 2007)
